Measured values published in patent US20070149552A1, “Lyophilized compositions of a triazolopyrimidine compound” (Wyeth, priority 2005, published 2007).

Key:
[1] = system: xenograft models of human non-small cell lung cancer (NSCLC), colon cancer, breast cancer, melanoma, and glioblastoma; details: including models resistant to taxanes or other microtubule-active compounds; cited from earlier work
Solubility of the salt = assay type: physicochemical

SMILES	antitumor activity [1]	solubility (Solubility of the salt)
CNCCCOc1cc(F)c(-c2c(Cl)nc3ncnn3c2N[C@@H](C)C(F)(F)F)c(F)c1 [Compound Ia, 5-chloro-6-{2,6-difluoro-4-[3-(methylamino)propoxy]phenyl}-N-[(1S)-2,2,2-trifluoro-1-methylethyl][1,2,4]triazolo[1,5-a]pyrimidin-7-amine]	broad antitumor activity	
CNCCCOc1cc(F)c(-c2c(Cl)nc3ncnn3c2N[C@@H](C)C(F)(F)F)c(F)c1.O=C(O)CCC(=O)O [succinate dihydrate salt of Compound Ia]		reasonable solubility
